Laboratory results published in patent US20220274979A1 (Bayer Pharma Aktiengesellschaft, priority 2018, published 2022).
Like-named read-outs stand apart in the source and are kept apart here.

Tests used:
[1] = target: T1, hK-RasG12C - hSOS1 interaction (Homo sapiens, UniProt Q07889); assay: Biochemical Assay 1: hK-RasG12C interaction assay with hSOS1 (HTRF); type: binding; conditions: for inhibition at 20 µM: read-out: Assay 1 (hKRAS, hSOS Interaction) activity (expressed as IC50, or as % inhibition at 20 μM)
T1 construct: hSOS1 (amino acid 564-1049); made in house; host or cells: E. coli BL21 (DE3)
T1 sequence (Q07889 with tags, fused parts or gaps): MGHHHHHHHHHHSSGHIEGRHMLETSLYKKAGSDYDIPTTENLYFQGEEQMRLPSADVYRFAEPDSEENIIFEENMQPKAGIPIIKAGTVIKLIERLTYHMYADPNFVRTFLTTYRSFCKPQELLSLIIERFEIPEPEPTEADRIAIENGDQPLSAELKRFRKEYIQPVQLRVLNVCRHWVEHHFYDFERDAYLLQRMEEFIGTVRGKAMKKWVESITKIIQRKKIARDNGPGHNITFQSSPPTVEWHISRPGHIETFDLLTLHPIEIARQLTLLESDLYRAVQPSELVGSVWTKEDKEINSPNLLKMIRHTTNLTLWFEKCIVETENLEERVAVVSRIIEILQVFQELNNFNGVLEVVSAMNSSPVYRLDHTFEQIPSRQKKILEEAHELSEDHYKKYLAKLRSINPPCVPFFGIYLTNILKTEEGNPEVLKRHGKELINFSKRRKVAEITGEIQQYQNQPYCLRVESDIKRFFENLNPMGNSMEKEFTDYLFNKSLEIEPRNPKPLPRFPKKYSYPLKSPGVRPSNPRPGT
Protocol: Biochemical Assay 1: hK-RasG12C Interaction Assay with hSOS1
This assay quantifies the equilibrium interaction of human SOS1 (hSOS1) with human K-Ras^G12C (hK-RasG12C). Detection of the interaction is achieved by measuring homogenous time-resolved fluorescence resonance energy transfer (HTRF) from antiGST-Europium (FRET donor) bound to GST-K-RasG12C to anti-6His-XL665 bound to His-tagged hSOS1 (FRET-acceptor).
The assay buffer contained 5 mM HEPES pH 7.4 (Applichem), 150 mM NaCl (Sigma), 10 mM EDTA (Promega), 1 mM DTT (Thermofisher), 0.05% BSA Fraction V, pH 7.0, (ICN Biomedicals), 0.0025% (v/v) Igepal (Sigma) and 100 mM KF (FLUKA).
Concentrations of protein batches used were optimized to be within the linear range of the HTRF signal. A Ras working solution was prepared in assay buffer containing typically 10 nM GST-hK-RasG12C and 2 nM antiGST-Eu(K) (Cisbio, France). A SOS1 working solution was prepared in assay buffer containing typically 20 nM His-hSOS1 and 10 nM anti-6His-XL665 (Cisbio, France). An inhibitor control solution was prepared in assay buffer containing 10 nM anti-6His-XL665 without hSOS1.
(§1) Fifty nl of a 100-fold concentrated solution of the test compound in DMSO were transferred into a black microtiter test plate (384 or 1536, Greiner Bio-One, Germany) For this, either a Hummingbird liquid handler (Digilab, Mass., USA) or an Echo acoustic system (Labcyte, Calif., USA) was used.
(§2) All steps of the assay were performed at 20° C. A volume of 2.5 μl of the Ras working solution was added to all wells of the test plate using a Multidrop dispenser (Thermo Labsystems). After 2 mM preincubation, 2.5 μl of the SOS1 working solution were added to all wells except for those wells at the side of the test plate that were subsequently filled with 2.5 μl of the inhibitor control solution. After 60 mM incubation the fluorescence was measured with a Pherastar (BMG, Germany) using the HTRF module (excitation 337 nm, emission 1:620 nm, emission 2:665 nm).
(§3) IC50 values were calculated by 4-Parameter fitting using a commercial software package (Genedata Screener, Switzerland).

[2] = target: T2, hSOS1 (hSOS1-mediated nucleotide exchange of hK-RasG12C) (Homo sapiens, UniProt Q07889); assay: Biochemical Assay 2: hK-RasG12C activation assay by hSOS1 at high GTP concentration (HTRF nucleotide exchange); conditions: high GTP (50 μM GTP)
T2 construct: hSOS1 (amino acid 564-1049); made in house; host or cells: E. coli BL21 (DE3)
T2 sequence (Q07889 with tags, fused parts or gaps): T1 sequence (Q07889 with tags, fused parts or gaps)
From the text: Biochemical Assay 2: hK-RasG12C Activation Assay by hSOS1 at High GTP Concentration
This assay quantifies human SOS1-mediated nucleotide exchange of human K-Ras^G12C (hK-RasG12C) preloaded with a fluorescent […] and in presence of an excess of free GTP. Loaded hK-RasG12C generates a high HTRF-signal by energy transfer from antiGST-Terbium (FRET donor) bound to hK-Ras to the loaded fluorescent GDP analog (FRET-acceptor). hSOS1 activity exchanges the fluorescent GDP for non-fluorescent GTP and therefore leads to a reduction of the HTRF signal.
The fluorescent GDP-analog EDA-GDP-Dy647P1 (2′/3′-O-(2-Aminoethyl-carbamoyl)-guanosine-5′-diphosphate labelled with Dy647P1 (Dyomics GmbH, Germany)) was synthesized by Jena Biosciences GmbH (Germany) and supplied as a 1 mM aqueous solution.
Concentrations of protein batches used were optimized to be within the linear range of the HTRF signal.
Addition of 20 μl 1 M MgCl2 (Sigma) to final 40 mM and store on ice. Purification into buffer (10 mM HEPES pH 7.4 (Applichem), 150 mM NaCl (Sigma), 5 mM MgCl2 (Sigma)) by use of a PD-Minitrap desalting column (GE Healthcare). Concentration of 1 ml purified hK-Ras-GDP-Dy647 is approx. 4-5 μM.
The assay buffer contained 10 mM HEPES pH 7.4 (Applichem), 150 mM NaCl (Sigma), 5 mM MgCl2 (Sigma), 1 mM DTT (Thermofisher), 0.05% BSA Fraction V, pH 7.0, (ICN Biomedicals), 0.0025% (v/v) Igepal (Sigma).
A Ras working solution was prepared in assay buffer containing typically 80 nM loaded GST-hK-RasG12C-EDA-GDP-Dy647P1 and 2 nM antiGST-Tb (Cisbio, France).
Alternatively, the inhibitor control solution was prepared by supplementing the hSOS1 working solution with 20 μM of 6,7-dimethoxy-N-[(1R)-1-(1-naphthyl)ethyl]quinazolin-4-amine which was used to calibrate the assay.
as §1
as §2, with “min.” for “mM”, “hSOS1” for “SOS1”, “20 min.” for “60 mM”
as §3

Cc1nc(NC(C)c2ccc(-c3ccccc3CN(C)C)s2)c2cc(OCCCN(C)C)ncc2n1 (stereo not drawn) [Example 72, N-[1-(5-{2-[(dimethylamino)methyl]phenyl}thiophen-2-yl)ethyl]-6-[3-(dimethylamino)propoxy]-2-methylpyrido[3,4-d]pyrimidin-4-amine]
IC50 ([1]; values expressed as IC50): 34.2 nM | IC50 [2]: 42.1 nM

Cc1nc(NC(C)c2ccc(-c3ccccc3CN(C)C)s2)c2cc(NCCn3cccn3)ncc2n1 (stereo not drawn) [Example 54, N4-[1-(5-{2-[(dimethylamino)methyl]phenyl}-2-thienyl)ethyl]-2-methyl-N6-[2-(1H-pyrazol-1-yl)ethyl]pyrido[3,4-d]pyrimidine-4,6-diamine]
IC50 ([1]; values expressed as IC50): 49.6 nM | IC50 [2]: 161 nM

Cc1nc(N[C@H](C)c2cccc(Br)c2)c2nc(N3CCOCC3)ncc2n1 [Example 22, N-[(1R)-1-(3-bromophenyl)ethyl]-2-methyl-6-(morpholin-4-yl)pyrimido[5,4-d]pyrimidin-4-amine]
IC50 ([1]; values expressed as IC50): 1620 nM | IC50 [2]: 1960 nM

Cc1nc(N[C@H](C)c2cccc(Br)c2)c2cc(Oc3cccc(C4=NCCN4C)c3)ncc2n1 [Example 41, N-[(1R)-1-(3-bromophenyl)ethyl]-2-methyl-6-[3-(1-methyl-4,5-dihydro-1H-imidazol-2-yl)phenoxy]pyrido[3,4-d]pyrimidin-4-amine]
IC50 ([1]; values expressed as IC50): 1600 nM | IC50 [2]: 2310 nM

Cc1nc(NC(C)c2ccc(-c3ccccc3CN(C)C)s2)c2cc(Oc3cccc(C4=NCCN4C)c3)ncc2n1 (stereo not drawn) [Example 58, N-[1-(5-{2-[(dimethylamino)methyl]phenyl}thiophen-2-yl)ethyl]-2-methyl-6-[3-(1-methyl-4,5-dihydro-1H-imidazol-2-yl)phenoxy]pyrido[3,4-d]pyrimidin-4-amine]
IC50 ([1]; values expressed as IC50): 117 nM | IC50 [2]: 141 nM

CCOc1cc2c(NC(C)c3cccc4sccc34)nc(C)nc2cn1 (stereo not drawn) [Example 3, N-[1-(1-benzothiophen-4-yl)ethyl]-6-ethoxy-2-methylpyrido[3,4-d]pyrimidin-4-amine]
IC50 ([1]; values expressed as IC50): 215 nM | IC50 [2]: 262 nM

Cc1nc(N[C@H](C)c2cccc(Br)c2)c2nc(Oc3ccccc3)ncc2n1 [Example 25, N-[(1R)-1-(3-bromophenyl)ethyl]-2-methyl-6-phenoxypyrimido[5,4-d]pyrimidin-4-amine]
inhibition at 20 µM [1]: 23.7% | IC50 [2]: > 20000 nM

CCOc1cc2c(N[C@H](C)c3cccc(Br)c3)nc(C)nc2cn1 [Example 5, N-[(1R)-1-(3-bromophenyl)ethyl]-6-ethoxy-2-methylpyrido[3,4-d]pyrimidin-4-amine]
IC50 ([1]; values expressed as IC50): 491 nM | IC50 [2]: 994 nM

Cc1nc(NC(C)c2ccc(-c3ccccc3CN(C)C)s2)c2cc(C3(O)CCN(C)C3=O)ncc2n1 (mixture of isomers) [Example 85, 3-(4-{[1-(5-{2-[(dimethylamino)methyl]phenyl}thiophen-2-yl)ethyl]amino}-2-methylpyrido[3,4-d]pyrimidin-6-yl)-3-hydroxy-1-methylpyrrolidin-2-one]
IC50 [1]: 83.4 nM | IC50 [2]: 214 nM

COCCOc1ncc2nc(C)nc(N[C@H](C)c3cccc(Br)c3)c2n1 [Example 26, N-[(1R)-1-(3-bromophenyl)ethyl]-6-(2-methoxyethoxy)-2-methylpyrimido[5,4-d]pyrimidin-4-amine]
IC50 ([1]; values expressed as IC50): 2750 nM | IC50 [2]: 3040 nM

CCOc1cc2c(N[C@H](C)c3cccc(Cl)c3)nc(C)nc2cn1 [Example 6]
IC50 ([1]; values expressed as IC50): 393 nM | IC50 [2]: 1120 nM

CCOc1ncc2nc(C)nc(N[C@H](C)c3cccc(Br)c3)c2n1 [Example 23, N-[(1R)-1-(3-bromophenyl)ethyl]-6-ethoxy-2-methylpyrimido[5,4-d]pyrimidin-4-amine]
IC50 ([1]; values expressed as IC50): 4350 nM | IC50 [2]: 4450 nM

Cc1nc(NC(C)c2ccc(-c3ccccc3CN(C)C)s2)c2cc(OC3CCS(=O)(=O)CC3)ncc2n1 (stereo not drawn) [Example 67, N-[1-(5-{2-[(dimethylamino)methyl]phenyl}thiophen-2-yl)ethyl]-6-[(1,1-dioxidotetrahydro-2H-thiopyran-4-yl)oxy]-2-methylpyrido[3,4-d]pyrimidin-4-amine]
IC50 ([1]; values expressed as IC50): 42 nM | IC50 [2]: 26.6 nM

COc1cc2c(NC(C)c3cccc4sccc34)nc(C)nc2cn1 (stereo not drawn) [Example 4, N-[1-(1-benzothiophen-4-yl)ethyl]-6-methoxy-2-methylpyrido[3,4-d]pyrimidin-4-amine]
IC50 ([1]; values expressed as IC50): 355 nM | IC50 [2]: 423 nM

Cc1nc(NC(C)c2ccc(-c3ccccc3CN(C)C)s2)c2cc(NC3CCOCC3)ncc2n1 (stereo not drawn) [Example 53, N4-[1-(5-{2-[(dimethylamino)methyl]phenyl}-2-thienyl)ethyl]-2-methyl-N6-(tetrahydro-2H-pyran-4-yl)pyrido[3,4-d]pyrimidine-4,6-diamine]
IC50 ([1]; values expressed as IC50): 54.7 nM | IC50 [2]: 223 nM

COc1ccc2nc(C)nc(N[C@H](C)c3cccc(Br)c3)c2n1 [Example 28, N-[(1R)-1-(3-bromophenyl)ethyl]-6-methoxy-2-methylpyrido[3,2-d]pyrimidin-4-amine]
inhibition at 20 µM [1]: 49.8% | IC50 [2]: > 20000 nM

CC(=O)NCCNc1cc2c(N[C@H](C)c3cccc(Br)c3)nc(C)nc2cn1 [Example 44, N-{2-[(4-{[(1R)-1-(3-bromophenyl)ethyl]amino}-2-methylpyrido[3,4-d]pyrimidin-6-yl)amino]ethyl}acetamide]
IC50 ([1]; values expressed as IC50): 985 nM | IC50 [2]: 1060 nM

Cc1nc(N[C@H](C)c2cccc(Br)c2)c2cc(NCCn3ccnc3)ncc2n1 [Example 84, N4-[(1R)-1-(3-bromophenyl)ethyl]-N6-[2-(1H-imidazol-1-yl)ethyl]-2-methylpyrido[3,4-d]pyrimidine-4,6-diamine]
IC50 ([1]; values expressed as IC50): 513 nM | IC50 [2]: 1030 nM
